# According to PubChem BioAssay (NCI):
#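 Tested at 5 concentrations; 48 h exposure; 96-well plates; endpoints linearly interpolated, else capped at highest concentration. GI50 is the concentration that inhibits growth by half. TGI: concentration producing complete growth inhibition.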
# Key:
# Test in all cases: growth of human tumour cells (NCI), 48 h
# A549 NSCLC = system: A549 NSCLC
# BT-549 breast = system: BT-549 breast
# MALME-3M melanoma = system: MALME-3M melanoma
# MOLT-4 leukemia = system: MOLT-4 leukemia
# NCI-H226 lung = system: NCI-H226 lung
# NCI-H522 lung = system: NCI-H522 lung
# RXF 393 renal = system: RXF 393 renal
# SK-MEL-28 melanoma = system: SK-MEL-28 melanoma
# SK-OV-3 ovarian = system: SK-OV-3 ovarian
# MDA-MB-231 breast = system: MDA-MB-231 breast
compound,measurement,setting,value
COc1ccc(/C=C2\CCC(CN(C)C)C2=O)cc1 (stereo unspecified),TGI,A549 NSCLC,30.6 µM
same,TGI,BT-549 breast,9.27 µM
same,TGI,MALME-3M melanoma,11.1 µM
same,TGI,MOLT-4 leukemia,6.85 µM
same,TGI,NCI-H226 lung,31.6 µM
same,TGI,NCI-H522 lung,2.84 µM
same,TGI,RXF 393 renal,13.6 µM
same,TGI,SK-MEL-28 melanoma,14.6 µM
same,TGI,SK-OV-3 ovarian,31.4 µM
Nc1c(C(=O)Nc2cccc3ccccc23)sc2nc3c(cc12)CCCCCC3,GI50,A549 NSCLC,2.54 µM
same,TGI,A549 NSCLC,> 50 µM
same,GI50,BT-549 breast,0.954 µM
same,TGI,BT-549 breast,4.81 µM
same,GI50,MALME-3M melanoma,> 50 µM
same,TGI,MALME-3M melanoma,> 50 µM
same,GI50,MDA-MB-231 breast,2.75 µM
same,TGI,MDA-MB-231 breast,> 50 µM
same,GI50,MOLT-4 leukemia,2.38 µM
same,TGI,MOLT-4 leukemia,> 50 µM
same,GI50,NCI-H226 lung,5.5 µM
same,TGI,NCI-H226 lung,> 50 µM
same,GI50,NCI-H522 lung,0.865 µM
same,TGI,NCI-H522 lung,4.33 µM
same,GI50,RXF 393 renal,1.5 µM
same,TGI,RXF 393 renal,> 50 µM
same,GI50,SK-MEL-28 melanoma,> 50 µM
same,TGI,SK-MEL-28 melanoma,> 50 µM
same,GI50,SK-OV-3 ovarian,1.95 µM
same,TGI,SK-OV-3 ovarian,> 50 µM
CCOc1ccc(-n2cc(-c3ccc(N(C)C)cc3)[n+]3c2CCCCC3)cc1,GI50,A549 NSCLC,1.88 µM
same,TGI,A549 NSCLC,> 100 µM
same,GI50,BT-549 breast,0.406 µM
same,TGI,BT-549 breast,29.1 µM
same,GI50,MALME-3M melanoma,0.269 µM
same,TGI,MALME-3M melanoma,14.1 µM
same,GI50,MDA-MB-231 breast,1.93 µM
same,TGI,MDA-MB-231 breast,> 27.8 µM
same,GI50,MOLT-4 leukemia,1 µM
same,TGI,MOLT-4 leukemia,26.5 µM
same,GI50,NCI-H226 lung,1.56 µM
same,TGI,NCI-H226 lung,> 100 µM
same,GI50,NCI-H522 lung,0.125 µM
same,TGI,NCI-H522 lung,3.91 µM
same,GI50,RXF 393 renal,4.51 µM
same,TGI,RXF 393 renal,> 90.3 µM
same,GI50,SK-MEL-28 melanoma,0.841 µM
same,TGI,SK-MEL-28 melanoma,> 81.9 µM
same,GI50,SK-OV-3 ovarian,1.61 µM
same,TGI,SK-OV-3 ovarian,7.41 µM
CCCCCCCCCCCC(=O)[O][Sn]([CH2]CCC)([CH2]CCC)[CH2]CCC,GI50,A549 NSCLC,0.055 µM
same,TGI,A549 NSCLC,0.185 µM
same,GI50,BT-549 breast,0.0623 µM
same,TGI,BT-549 breast,0.184 µM
same,GI50,MALME-3M melanoma,0.0211 µM
same,TGI,MALME-3M melanoma,0.0772 µM
same,GI50,MDA-MB-231 breast,0.0317 µM
same,TGI,MDA-MB-231 breast,0.113 µM
same,GI50,MOLT-4 leukemia,0.0436 µM
same,TGI,MOLT-4 leukemia,0.732 µM
same,GI50,NCI-H522 lung,0.0409 µM
same,TGI,NCI-H522 lung,0.116 µM
same,GI50,RXF 393 renal,0.0483 µM
same,TGI,RXF 393 renal,0.117 µM
same,GI50,SK-MEL-28 melanoma,0.0649 µM
same,TGI,SK-MEL-28 melanoma,0.179 µM
same,GI50,SK-OV-3 ovarian,0.0617 µM
same,TGI,SK-OV-3 ovarian,0.193 µM
O=C(O)c1cccc(F)c1C(=O)c1ccc2ccccc2c1,TGI,A549 NSCLC,> 100 µM
same,TGI,BT-549 breast,> 100 µM
same,TGI,MALME-3M melanoma,> 100 µM
same,TGI,MDA-MB-231 breast,> 100 µM
same,TGI,NCI-H226 lung,> 100 µM
same,TGI,NCI-H522 lung,> 100 µM
same,TGI,RXF 393 renal,> 100 µM
same,TGI,SK-MEL-28 melanoma,> 100 µM
same,TGI,SK-OV-3 ovarian,> 100 µM
OC(c1cc2c(Cl)cc(Cl)cc2c2cc(C(F)(F)F)ccc12)C1CCCCN1 (stereo unspecified),GI50,A549 NSCLC,1.85 µM
same,TGI,A549 NSCLC,3.68 µM
same,GI50,MALME-3M melanoma,1.85 µM
same,TGI,MALME-3M melanoma,3.91 µM
same,GI50,MDA-MB-231 breast,1.48 µM
same,TGI,MDA-MB-231 breast,3.24 µM
same,GI50,NCI-H226 lung,1.73 µM
same,TGI,NCI-H226 lung,3.56 µM
same,GI50,NCI-H522 lung,1.55 µM
same,TGI,NCI-H522 lung,3.22 µM
same,GI50,RXF 393 renal,1.61 µM
same,TGI,RXF 393 renal,3.12 µM
same,GI50,SK-MEL-28 melanoma,1.96 µM
same,TGI,SK-MEL-28 melanoma,3.62 µM
same,GI50,SK-OV-3 ovarian,1.67 µM
same,TGI,SK-OV-3 ovarian,3.26 µM
Nc1c2c(c(O)c3c1=C(CO)C=N3)=NCCS2=O (stereo unspecified),GI50,A549 NSCLC,1.72 µM
same,TGI,A549 NSCLC,3.55 µM
same,GI50,BT-549 breast,1.69 µM
same,TGI,BT-549 breast,3.1 µM
same,GI50,MALME-3M melanoma,0.253 µM
same,TGI,MALME-3M melanoma,0.739 µM
same,GI50,MDA-MB-231 breast,2.82 µM
same,TGI,MDA-MB-231 breast,9.69 µM
same,GI50,MOLT-4 leukemia,1.24 µM
same,TGI,MOLT-4 leukemia,4.22 µM
same,GI50,NCI-H226 lung,1.79 µM
same,TGI,NCI-H226 lung,4.17 µM
same,GI50,NCI-H522 lung,1.37 µM
same,TGI,NCI-H522 lung,3.3 µM
same,GI50,RXF 393 renal,3.84 µM
same,TGI,RXF 393 renal,17.5 µM
same,GI50,SK-OV-3 ovarian,3.11 µM
same,TGI,SK-OV-3 ovarian,10.9 µM
COc1ccc(S(=O)(=O)Nc2c(/C=C\c3cc(OC)c(OC)c(OC)c3)ccc(OC)c2O)cc1OC,GI50,A549 NSCLC,0.403 µM
same,TGI,A549 NSCLC,> 100 µM
same,GI50,BT-549 breast,0.256 µM
same,GI50,MALME-3M melanoma,> 100 µM
same,TGI,MALME-3M melanoma,> 100 µM
same,GI50,MDA-MB-231 breast,0.338 µM
same,TGI,MDA-MB-231 breast,> 100 µM
same,GI50,MOLT-4 leukemia,0.44 µM
same,TGI,MOLT-4 leukemia,> 100 µM
same,GI50,NCI-H522 lung,0.0776 µM
same,TGI,NCI-H522 lung,> 100 µM
same,GI50,SK-MEL-28 melanoma,1.74 µM
same,TGI,SK-MEL-28 melanoma,> 100 µM
same,GI50,SK-OV-3 ovarian,1.29 µM
same,TGI,SK-OV-3 ovarian,> 100 µM
CC(=O)O[C@H]1CC[C@@]2(C)[C@@H](CC[C@@H]3[C@@H]2CC(=O)[C@@]2(C)[C@H]3C[C@@H]3CC(C)=CC(=O)[C@@H]32)C1,TGI,A549 NSCLC,> 100 µM
same,TGI,BT-549 breast,71.2 µM
same,TGI,MALME-3M melanoma,> 100 µM
same,TGI,MDA-MB-231 breast,> 100 µM
same,TGI,NCI-H226 lung,> 100 µM
same,TGI,NCI-H522 lung,> 100 µM
same,TGI,RXF 393 renal,86.7 µM
same,TGI,SK-MEL-28 melanoma,> 100 µM
same,TGI,SK-OV-3 ovarian,> 100 µM
Cc1nc(N(C)C)nc(-c2cccc(-c3ccn(CCN(C)C)n3)c2)c1C,GI50,A549 NSCLC,> 20 µM
same,TGI,A549 NSCLC,> 20 µM
same,GI50,BT-549 breast,> 20 µM
same,TGI,BT-549 breast,> 20 µM
same,GI50,MDA-MB-231 breast,> 20 µM
same,TGI,MDA-MB-231 breast,> 20 µM
same,GI50,MOLT-4 leukemia,> 20 µM
same,TGI,MOLT-4 leukemia,> 20 µM
same,GI50,NCI-H226 lung,> 20 µM
same,TGI,NCI-H226 lung,> 20 µM
same,GI50,NCI-H522 lung,> 20 µM
same,TGI,NCI-H522 lung,> 20 µM
same,GI50,RXF 393 renal,> 20 µM
same,TGI,RXF 393 renal,> 20 µM
same,GI50,SK-MEL-28 melanoma,> 20 µM
same,TGI,SK-MEL-28 melanoma,> 20 µM
same,GI50,SK-OV-3 ovarian,> 20 µM
same,TGI,SK-OV-3 ovarian,> 20 µM
COc1cc(Cl)c(C)cc1NC(=O)c1cc2ccccc2cc1O,GI50,A549 NSCLC,2.96 µM
same,TGI,A549 NSCLC,10.6 µM
same,GI50,MALME-3M melanoma,1.69 µM
same,TGI,MALME-3M melanoma,10 µM
same,GI50,MDA-MB-231 breast,1.19 µM
same,TGI,MDA-MB-231 breast,2.72 µM
same,GI50,MOLT-4 leukemia,2.85 µM
same,TGI,MOLT-4 leukemia,14 µM
same,GI50,NCI-H226 lung,1.94 µM
same,TGI,NCI-H226 lung,6.28 µM
same,GI50,NCI-H522 lung,1.46 µM
same,TGI,NCI-H522 lung,4.47 µM
same,GI50,RXF 393 renal,2.84 µM
same,TGI,RXF 393 renal,7.01 µM
same,GI50,SK-MEL-28 melanoma,3.77 µM
same,TGI,SK-MEL-28 melanoma,22.8 µM
CC1(C)OC(=O)C(c2ccsc2)C(=O)O1,TGI,A549 NSCLC,> 100 µM
same,TGI,MALME-3M melanoma,> 100 µM
same,TGI,MOLT-4 leukemia,> 100 µM
same,TGI,NCI-H226 lung,> 100 µM
same,TGI,NCI-H522 lung,> 100 µM
same,TGI,RXF 393 renal,> 100 µM
same,TGI,SK-MEL-28 melanoma,> 100 µM
same,TGI,SK-OV-3 ovarian,> 100 µM
